Measured values published in PubChem BioAssay AID179 (DTP/NCI, 2004).
Values joined by “and” are separate entries in the source; they are usually repeats but may differ in a detail not shown here. Equal values may be shown once. Active and inactive are the calls of the source.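 The calls were made as follows: active = compounds giving half or more protection of infected cells from virus-caused growth loss, again on retest; inactive = the rest.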

Test system: CEM cells HIV-1 protection, formazan growth assay
Assay: NCI AIDS Antiviral Assay
Details: for IC50: measured here: growth of uninfected CEM cells
How it was run: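 Soluble formazan readout of cell growth; CEM cells ± HIV-1; 5 drug concs. ≥50% protection → retest; ≥50% again = moderately active; reproducible 100% = confirmed active.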

| SMILES | EC50 [µM] | IC50 | outcome |
| --- | --- | --- | --- |
| CCOC(=O)c1cc2c3c(c(C(C)=O)c(OC)c2[nH]1)N(C(=O)CC)CC3 | > 200 | 16.2 µM |  |
| CCCCN(CCCC)C(=O)C(=O)C(C(=O)c1ccc(OC)cc1)c1ccc(OC)cc1 (stereo not given) | > 11.7 | > 11.7 µM |  |
| CN1CN(c2ccccc2)C2(CCN(CCCSc3ccccc3NC(=O)/C=C/c3ccccc3)CC2)C1=O | > 200 | 3.31 µM |  |
| NC1=NC(N)=N1 | > 2950 | > 2950 µM |  |
| O=c1[nH]c(=O)n(C2CC(O)C(CO)O2)c2nc3ccc4cc5ccccc5cc4c3nc12 (stereo not given) | > 50.1 | 39.8 µM |  |
| COc1cccc(/C=C2/S/C(=N/Nc3nc(C)c(C(C)=O)s3)NC2=O)c1O | > 200 | 32.4 µM |  |
| COC(=O)C(Cc1ccccc1)NP(=O)(O)OCC1OC(n2cc(Br)c(=O)[nH]c2=O)CC1O (stereo not given) | > 200 | > 200 µM |  |
| COC1(OC)N=C(N)C2(C#N)C(c3ccccc3)NC3=C(CCC3)C12C#N (stereo not given) | > 200 | > 200 µM |  |
| CC(C)(C)[Si](C)(C)OCC1CCC(n2cnc3c(NC(=O)c4ccccc4)ncnc32)O1 (stereo not given) |  |  | inactive |
| NNC(=O)c1ccncc1 | > 200 | > 200 µM |  |
| Nn1c(CCCCCCCCc2nnc(COc3ccc(Cl)cc3)n2N)nnc1COc1ccc(Cl)cc1 | > 200 | 85.1 µM |  |
| O=C1OC(=O)C23CSCC12C1C=CC3O1 (stereo not given) | > 417 | > 417 µM |  |
| CO/C(=N\N=C\c1ccc(Cl)c(Cl)c1)c1ccncc1 | > 23.4 | > 23.4 µM |  |
| COC(=O)/C=C1\C(CO[Si](C)(C)C(C)(C)C)OC(n2cc(C)c(=O)[nH]c2=O)C1O[Si](C)(C)C(C)(C)C (stereo not given) | > 200 | 7.08 µM |  |
| S=C1NC2=C(COC/C2=C\c2ccccc2Cl)C(c2ccccc2Cl)N1 (stereo not given) |  |  | inactive |
| O=c1c2ccccc2n2n1CC(O)C2 (stereo not given) |  |  | inactive |
| O=C(/C=C/c1ccc(Cl)cc1)NC1C=Nc2ccc([N+](=O)[O-])cc2NC1=O (stereo not given) | > 200 | > 200 µM |  |
| CCN(CC)CCN1C(=O)CN=C(c2ccccn2)c2cc(Cl)ccc21 | > 447 | 240 µM |  |
| Cc1cc(C)c(C(=O)c2ccccc2C(=O)O)c(C)c1 | > 200 | > 200 µM |  |
| Cc1c(C)n(-c2ccccc2)c2nc(S(C)=O)nc(S(C)=O)c12 (stereo not given) | > 20 | 1.35 µM |  |
| S=c1nn[nH]n1-c1ccccc1.[Cd] | > 42.7 | 32.4 µM |  |
| c1ccc2c(c1)CCc1c-2n(CCN2CCCCC2)c2ccccc12 | > 200 | 10.7 µM |  |
| Cn1c(=O)c(C#N)c2n(c1=S)CCCCCCC2 | > 200 | 112 µM |  |

| SMILES | EC50 [µM] | IC50 | outcome |
| --- | --- | --- | --- |
| CC(=O)OCC1OC(n2c(C)c(C(C)=O)c(-c3ccc(Cl)cc3)c(C#N)c2=S)C(OC(C)=O)C(OC(C)=O)C1OC(C)=O (stereo not given) | > 200 | 148 µM |  |
| COc1ccc(C2CC(c3ccccc3)=Nc3ccccc3S2)cc1OC (stereo not given) | > 39.8 | 8.51 µM |  |
| COC[C@H](C)N=CN1CCc2ccccc2C1(Cc1ccccc1)Cc1ccccc1 | > 33.1 | > 33.1 µM |  |
| CCCCCCCCCCCCCCCCCCOCC(O)CO (stereo not given) | > 3.02 | > 3.02 µM |  |
| O=C(NCCN(CCNC(=O)c1cccc(=O)n1O)CCNC(=O)c1cccc(=O)n1O)c1cccc(=O)n1O | > 200 | > 200 µM |  |
| CC(=O)OCC(OC(C)=O)C(OC(C)=O)C(/C=N\Nc1nc2ccccc2c(=O)[nH]1)OC(C)=O (stereo not given) | > 200 | > 200 µM |  |
| CC(C)(C)OC(=O)CCCCCNC(=O)CCCCCNC(=O)CCC(CN(CC(=O)OCc1ccccc1)CC(=O)OCc1ccccc1)N(CC(=O)OCc1ccccc1)CC(=O)OCc1ccccc1 (stereo not given) |  |  | inactive |
| CC(C)OC(=O)c1cc(NC(=O)C(C)(C)C)c(F)cc1Cl |  |  | inactive |
| C[N+]12CCCCC1C(CN1C(=O)c3ccccc3C1=O)CCC2 (stereo not given) | 58.9 | > 200 µM |  |
| CCN(CC)CCN(CC)CC(=O)Nc1ccccc1Cl | > 200 | > 200 µM |  |
| O=C(O)c1ccc(C(=O)c2ccccc2)c(C(=O)O)c1 | > 200 | > 200 µM |  |
| NNC(=O)CCC(NS(=O)(=O)c1ccc(Cl)cc1)C(=O)NN (stereo not given) | > 200 | 145 µM |  |
| CCCCCCCCOCC(COC(=O)CCCCCCC)OC(=O)CCCCCCC (stereo not given) | > 151 | 37.2 µM |  |
| O=C(NN1C(=O)C(Cl)C1c1cccc(Cl)c1)c1ccccc1O (stereo not given) | > 74.1 | > 74.1 µM |  |
| COc1cccc(C2N3CCCCC3[C@@H]3c4[nH]c5ccccc5c4CCN23)c1OC (stereo not given in full) | > 33.9 | > 33.9 µM |  |
| Nc1c(Br)cc(/C=C2\C=Cc3ccccc32)cc1Br | > 10 | > 10 µM |  |
| CC/C(Cl)=N\OC(=O)Nc1ccc(F)c(Cl)c1 |  |  | inactive |
| CC(=O)OC1CC2C(C)(C)C(=O)C=C[C@]2(C)C2CCC3(C)C(c4ccoc4)OC(=O)[C@H]4O[C@]43[C@]12C (stereo not given in full) |  |  | inactive |
| COC(=O)C1=C(C(=O)OC)C(C(=O)OC)C(C(=O)OC)C(C(=O)OC)(C(=O)OC)C(C(=O)OC)=C1C(=O)OC (stereo not given) |  |  | inactive |
| O=P1(NCCCl)OCCCN1CCCl (stereo not given) | > 955 | > 955 µM |  |
| O=C(OCc1ccccc1)N1C[C@@H](OCc2ccccc2)[C@@H](OCc2ccccc2)[C@H]1CO | > 200 | 10.7 µM |  |
| CCOC(=O)C1Cc2[nH]c3ccccc3c2C(C)C1C (stereo not given) | > 95.5 | 49 µM |  |
| COc1ccccc1NC(=O)CC(=O)n1nc(C)c(N=Nc2ccccc2Cl)c1C |  |  | inactive |

| SMILES | EC50 [µM] | IC50 | outcome |
| --- | --- | --- | --- |
| COc1ccc(N(C(=O)Nc2ccc(Cl)c(Cl)c2)c2ccccc2)cc1 | > 200 | 126 µM |  |
| CCOC(=O)c1c[nH]c2ccc3c(c2c1=O)S(=O)(=O)CC3 (tested in a mixture with another compound) |  |  | inactive |
| Cc1cccc(/C=C(\C#N)C(=O)c2ccccc2)c1 | > 363 | 178 µM |  |
| Cc1nnc2c3nnc(C)n3c3ccccc3n12 |  |  | inactive |
| O=c1c(Br)cc2nc3ccccc3sc-2c1Br | > 10 | > 10 µM |  |
| CSC1=Nc2ccccc2SC(c2ccccc2)C1c1ccccc1 (stereo not given) | > 49 | 35.5 µM |  |
| C1C2OC2C2C1C1CC2C2OC12 (stereo not given) | > 1510 | > 1510 µM |  |
| O=C(C=Nc1ccccc1C(=O)[O-])c1ccco1.O=C(C=Nc1ccccc1C(=O)[O-])c1ccco1.[Zn+2] | > 1.38 | > 1.38 µM |  |
| N#Cc1c2c(c(N)oc1=O)C(c1ccccc1)CC(=O)N2 (stereo not given) | > 200 | > 200 µM |  |
| N#Cc1cccc(/C=C2\CCc3ccccc3C2=O)c1 | > 28.2 | 20.9 µM |  |
| CN(C)c1ccc(C=C(C(=O)O)C(=O)O)cc1 | > 550 | > 550 µM |  |
| O=C(Cc1ccc(OCc2cccc(Cl)c2)cc1)NO | > 200 | 29.5 µM |  |
| O=C(Nc1ccc2c(O)c(N=Nc3ccccc3)c(S(=O)(=O)O)cc2c1)Nc1ccc2c(O)c(N=Nc3ccccc3)c(S(=O)(=O)O)cc2c1 | 40.7 | 50.1 µM and 191 µM |  |
| CCc1cccc(C(C)C)c1NC(=O)C(=O)CC(=O)c1sc(Nc2c(CC)cccc2C(C)(C)C)nc1C | > 200 | 60.3 µM |  |
| O=C(O)c1ccccc1P(=O)(O)c1ccccc1 | > 200 | > 200 µM |  |
| Nc1ccccc1C1=Nc2cncnc2NC1 | > 417 | 295 µM |  |
| CC(C)/C(Cl)=N\OC(=O)Nc1cccc(F)c1 | > 200 | 9.77 µM |  |
| CN1CCC2(CC1)C(=O)N(Cc1ccccc1)C(=O)C2c1ccccc1 (stereo not given) | > 372 | 214 µM |  |
| COc1ccccc1NC(=O)CC(=O)N1N=C(N2c3ccccc3Sc3ccccc32)CC1c1ccccc1 (stereo not given) | > 200 | > 200 µM |  |
| NC(=O)n1ncc(Cl)c(Cl)c1=O | > 91.2 | 47.9 µM |  |
| CCC1=CC2CN3CCc4c([nH]c5ccccc45)[C@@](C(=O)OC)(C2)[C@@H]13 |  |  | inactive |
| CS(=O)(=O)c1cc(=O)[nH]c(=O)[nH]1 | 77.6 | 102 µM |  |
| COc1c(C)c2c(c(=O)c3c(C)cccc3n2C)c2c1c(=O)c1c(C)cccc1n2C | > 200 | 155 µM |  |

| SMILES | EC50 [µM] | IC50 | outcome |
| --- | --- | --- | --- |
| CCCCNC1CCCCC[C@H]1O (stereo not given in full) | > 1120 | > 1120 µM |  |
| O=c1cc(CNC2CC3CCC2C3)[nH]c(=O)[nH]1 (stereo not given) |  |  | inactive |
| C[C@@H](c1ccccc1)N(CC#N)[C@H]1CCC[C@]1(O)/C=C/c1ccc2c(c1)OCO2 | > 50.1 | > 50.1 µM |  |
| COC(=O)c1sc(C(=O)OC)c2c1CS(=O)C2 |  |  | inactive |
| N#CC(C(=O)CCCC(=O)Nc1ccc(Cl)cc1Cl)c1ccc(Cl)cc1 (stereo not given) |  |  | inactive |
| COC(=O)C1C2C(=O)NC(=O)C2C(c2ccc(-c3ccccc3)cc2)N1C1CCCCC1 (stereo not given) | > 135 | 19.1 µM |  |
| Cc1ccc(-c2[nH]c(=O)n(C3OC(CO)C(O)C(O)C3O)c(=O)c2C#N)cc1 (stereo not given) | > 200 | > 200 µM |  |
| CCOC(=O)CCC(NC(=O)c1ccc(N2CCN(c3c(C)nc(N)nc3N)CC2)cc1)C(=O)OCC (stereo not given) | > 0.2 | 0.0427 µM |  |
| CCCOC1OC(CS(=O)(=O)O)C(OC(C)=O)C(OC(C)=O)C1OC(C)=O (stereo not given) |  |  | inactive |
| CCNC(=O)c1ccc(C)c(N=NN(C)C)c1 | > 288 | > 288 µM |  |
| CC(=O)N1C(Nc2ccccn2)CCN1c1ccccc1 (stereo not given) | > 200 | 38 µM |  |
| Cc1cc(C)c2c(c1)CC(C)(C)C(=O)OC2=O | > 112 | > 112 µM |  |
| C/C(=C\c1ccccc1)C(O)C(=O)c1nc2ccc(Cl)cc2[nH]c1=O (stereo not given) | > 708 | 33.9 µM |  |
| CCOC1C2c3cc(OC)c(OC)cc3CC(C#N)(c3ccccc32)N1C(=O)c1ccccc1 (stereo not given) |  |  | inactive |
| COc1cc(C2C(C#N)=C(N)OC3=C2CCS(=O)(=O)c2ccc(C)cc23)cc(OC)c1OC (stereo not given) | > 200 | > 200 µM |  |
| COC(CN(C)C(=S)Nc1cccc2ccccc12)OC | > 200 | 79.4 µM |  |
| CCN(CC)CP(CN(CC)CC)CN(CC)CC | > 200 | 126 µM |  |
| NCCNCc1c2ccccc2c(CNCCN)c2ccccc12 | > 95.5 | 7.94 µM |  |
| COC(=O)C12C(=O)O[C@H](C)C1(O)C(C)C(=O)N2C (stereo not given in full) |  |  | inactive |
| Cc1csc(=Nc2ccccc2)n1CCC(O)(P(=O)(O)O)P(=O)(O)O | > 200 | 9.55 µM |  |
